Drawing on publication PMC8863579, “Effects of pharmacological inhibition of the sodium‐dependent phosphate cotransporter 2b (NPT2b) on intestinal phosphate absorption in mouse and rat models” (Pharmacology Research & Perspectives, 2022), this text covers IC50 and Selectivity for one molecule.

In one assay the target is T1, Human PiT1 (Homo sapiens, UniProt Q8WUM9).
T1 construct: Full Length cDNA Cloning and Generation of Cell Lines Over-Expressing Human NPT2a, NPT2c, Pit1, and Pit2; host or cells: CHO-K1, pcDNA3.1(+), constitutive
T1 sequence (Q8WUM9 1-679): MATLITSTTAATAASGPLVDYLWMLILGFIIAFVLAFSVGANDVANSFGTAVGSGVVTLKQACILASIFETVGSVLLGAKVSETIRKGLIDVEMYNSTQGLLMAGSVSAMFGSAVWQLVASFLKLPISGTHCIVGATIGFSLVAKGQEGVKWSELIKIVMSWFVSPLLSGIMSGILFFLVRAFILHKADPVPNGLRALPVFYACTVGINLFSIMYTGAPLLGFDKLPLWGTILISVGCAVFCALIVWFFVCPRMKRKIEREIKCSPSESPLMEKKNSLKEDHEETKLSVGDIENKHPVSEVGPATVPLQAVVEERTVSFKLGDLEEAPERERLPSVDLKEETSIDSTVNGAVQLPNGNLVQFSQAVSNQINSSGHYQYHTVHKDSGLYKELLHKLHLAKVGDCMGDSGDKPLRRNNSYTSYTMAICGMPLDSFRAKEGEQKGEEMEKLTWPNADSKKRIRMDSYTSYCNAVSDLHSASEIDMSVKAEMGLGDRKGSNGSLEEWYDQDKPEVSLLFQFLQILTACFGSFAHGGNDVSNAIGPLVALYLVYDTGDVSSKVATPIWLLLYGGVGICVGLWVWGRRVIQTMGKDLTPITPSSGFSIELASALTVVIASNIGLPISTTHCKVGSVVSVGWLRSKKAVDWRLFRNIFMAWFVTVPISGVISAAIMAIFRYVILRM
The assay is described as follows: 33P-phosphate uptake in CHO cells over-expressing human PiT1. In kind it is cell-based. On the procedure: (§1) T‐Rex™ Chinese Hamster Ovary cells (CHO; Thermo Fisher Scientific) stably expressing human, mouse, or rat NPT2b under a tetracycline‐inducible promoter were generated using standard cDNA transfection and clone selection procedures (see Supporting Information). Cells were plated in 96‐well CytoStar‐T® scintillating microplates and were incubated overnight in growth media plus 100 ng/ml of tetracycline to induce expression of NPT2b. The next day, cells were washed 3 times with 200 µl assay buffer (137 mM NaCl, 5.4 mM KCl, 2.8 mM CaCl2, 1.2 mM MgSO4, and 14 mM Tris‐HCl buffer, pH 7.5). LY3358966 serially diluted 1‐to‐3 in DMSO was added to cells with assay buffer. An equal volume of H3 ^33PO4 (PerkinElmer) in assay buffer supplemented with 5 µM potassium phosphate was then added to initiate radiolabeled phosphate (^33P‐phosphate) uptake. […] The plate was immediately read on a Wallac MicroBeta Trilux liquid scintillation counter. Percent inhibition at all concentrations tested was calculated, and IC50 values were then determined using a 4‐parameter logistic curve fitting equation.
(§2) Similar methods were used to measure the effects of LY3358966 on other transporters of interest, except that constitutive promoters were used to generate CHO cells over‐expressing human PiT1 and PiT2. The ^33P‐phosphate uptake was measured after 45 min at 20°C for the NPT2a, NPT2c, PiT1, and PiT2 assays. […]

Another assay deals with T2, Human NPT2a (Homo sapiens, UniProt Q06495).
T2 construct: Full Length cDNA Cloning and Generation of Cell Lines Over-Expressing Human NPT2a, NPT2c, Pit1, and Pit2; host or cells: CHO-K1 / T-REx CHO, pJTI R4 CMV-TO, tetracycline-induced
T2 sequence (Q06495 1-639): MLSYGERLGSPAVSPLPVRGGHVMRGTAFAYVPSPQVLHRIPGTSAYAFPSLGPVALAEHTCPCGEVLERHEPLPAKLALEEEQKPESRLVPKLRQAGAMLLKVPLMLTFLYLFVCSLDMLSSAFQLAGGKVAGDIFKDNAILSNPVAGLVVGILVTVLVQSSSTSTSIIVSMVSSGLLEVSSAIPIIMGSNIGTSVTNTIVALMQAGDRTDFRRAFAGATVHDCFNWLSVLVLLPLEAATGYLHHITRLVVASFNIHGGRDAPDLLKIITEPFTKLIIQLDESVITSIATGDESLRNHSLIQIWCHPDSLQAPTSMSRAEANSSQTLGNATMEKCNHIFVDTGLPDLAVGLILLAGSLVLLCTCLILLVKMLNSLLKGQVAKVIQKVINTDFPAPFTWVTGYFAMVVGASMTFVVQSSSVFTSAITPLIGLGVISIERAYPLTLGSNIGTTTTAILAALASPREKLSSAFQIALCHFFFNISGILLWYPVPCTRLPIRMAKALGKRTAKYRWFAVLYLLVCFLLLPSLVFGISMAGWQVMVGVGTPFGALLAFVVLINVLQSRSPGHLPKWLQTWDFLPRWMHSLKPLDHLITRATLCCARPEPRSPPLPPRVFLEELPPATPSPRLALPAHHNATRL
Description: 33P-phosphate uptake in CHO cells expressing human NPT2a. In kind it is cell-based. On the procedure: as §1, §2

As usually defined, the IC50 is the concentration at which inhibition is half-maximal. Lower therefore signals higher potency. Take `CC1(C)CN(C(=O)NCCCCO)CCN1Cc1cccc(C(=O)Nc2sc3c(c2C(=O)Nc2cc(F)c(CCc4ccc(C(=O)O)cc4)c(F)c2)CCCC3)c1` [LY3358966, 4‐[2‐[2,6‐difluoro‐4‐[[2‐[[3‐[[4‐(4‐hydroxybutylcarbamoyl)‐2,2‐dimethyl‐piperazin‐1‐yl]methyl]benzoyl]amino]‐4,5,6,7‐tetrahydrobenzothiophene‐3‐carbonyl]amino]phenyl]ethyl]benzoic acid]: the IC50 against Human PiT1 (45 min at 20°C) was more than 100 µM; against Human NPT2a (geometric mean, 45 min at 20°C) it was 0.011 µM. For the same molecule, the Selectivity was more than 3086 on Human PiT1 (ratio of IC50 of human PiT1 assay to that of human NPT2b assay) and 0.3 at Human NPT2a (ratio of IC50 of human NPT2a assay to that of human NPT2b assay).
